Changes are numbered by the printed parent chain. Numbers in names are those of the source. Where no end group is shown, it is not given here.
Assays:
purified HLA DRB4 *0101 = purified HLA DRB4 *0101 (Homo sapiens, UniProt P01903+P13762, G164S); assay: IC50nM to purified HLA | DRB4 *0101
Description: (§1) Table printed on a drawing sheet, FIG. 1
Head of the field: IC50nM to purified HLA | DRB4 *0101
(§2) First copying reader's note: The comma is the decimal sign and the point a thousands separator (e.g. 21.831); some values are printed bold or italic and some SEQ ID NOs underlined, with no legend on the sheet.
Where the first naming reader finds the target: head: IC50nM to purified HLA | DRB4 *0101

purified HLA DRB1 *0401 = purified HLA DRB1 *0401 (Homo sapiens, UniProt P01903+P01911, A100K/A169T/F76Y/I96L/K127E/L162R/M171V/N62H/P40V/Q125Y/R42H/S133A/S149N/S66Y/V115G/V209L/W38E); assay: IC50nM to purified HLA | DRB1 *0401
Description: as §1
Head of the field: IC50nM to purified HLA | DRB1 *0401
as §2
Where the first naming reader finds the target: head: IC50nM to purified HLA | DRB1 *0401

purified HLA DRB1 *0301 = purified HLA DRB1 *0301 (Homo sapiens, UniProt P01903+P01911, A100K/A102G/A103R/A169T/F55Y/I96L/K41T/L162R/M171V/P40S/Q125H/Q178H/Q39Y/R42S/S66N/T106N/T262R/W38E/Y61H); assay: IC50nM to purified HLA | DRB1 *0301
Description: as §1
Head of the field: IC50nM to purified HLA | DRB1 *0301
as §2
Where the first naming reader finds the target: head: IC50nM to purified HLA | DRB1 *0301

purified HLA DRB1 *0101 = purified HLA DRB1 *0101 (Homo sapiens, UniProt P01903+P01911, A100R/D57E/F55L/F60I/F76Y/I96L/L162R/M171V/P40L/Q125E/R42F/V115G/Y59C); assay: IC50nM to purified HLA | DRB1 *0101
Description: as §1
Head of the field: IC50nM to purified HLA | DRB1 *0101
as §2
Where the first naming reader finds the target: head: IC50nM to purified HLA | DRB1 *0101

purified HLA DRB1 *0701 = purified HLA DRB1 *0701 (Homo sapiens, UniProt P01903+P01911, A100R/A102G/A103Q/D57E/D86V/E43K/F76Y/K127E/L162R/M171V/P40G/Q125H/Q99D/R33Q/R42Y/R54Q/S133A/S66F/T210M/V115G/Y107V/Y59L/Y89S); assay: IC50nM to purified HLA | DRB1 *0701
Description: as §1
Head of the field: IC50nM to purified HLA | DRB1 *0701
as §2
Where the first naming reader finds the target: head: IC50nM to purified HLA | DRB1 *0701

purified HLA DRB1 *0404 = purified HLA DRB1 *0404 (Homo sapiens, UniProt P01903+P01911, A100R/A169T/F76Y/I96L/K127E/L162R/M171V/N62H/P40V/Q125Y/R42H/S133A/S149N/S66Y/V209L/W38E); assay: IC50nM to purified HLA | DRB1 *0404
Description: as §1
Head of the field: IC50nM to purified HLA | DRB1 *0404
as §2
Where the first naming reader finds the target: head: IC50nM to purified HLA | DRB1 *0404

[1] = system: crude extract from E. coli; assay: In situ protease assay: TNFα variants in E. coli crude extract, SDS-PAGE and Western blot; assay type: in vitro ADME; details: for protease resistance of TNF variants (proteolytic cleavage inside the PADRE analogue sequence): E. coli crude extract, immunoblot, data not shown
Description: In order to test the protease resistance of selected, good binding PADRE analogues, their sequences were inserted by cloning techniques into a loop (loop EF) in human TNFα. Cell-free protein crude extract from E. coli expressing the modified TNFα molecules was prepared and proteolytic cleavage within the PADRE analogue sequences was analysed by SDS-PAGE followed by immunoblotting.
A synthetic cDNA encoding TNF (Y87S) was used as template. Oligonucleotides encoding PADRE or PADRE analogues were inserted into the template between A185 and E186 by PCR (cf. above). Resulting cDNAs were cloned into pET28b+(Novagen) and transformed into E. coli strain HMS 174. For recombinant expression, the resulting E. coli strains were cultured in fermentors in a defined medium at 37° C. Induction of recombinant expression was initiated by the addition of 1 mM of IPTG and temperature was lowered to 25° C. Cultures were harvested at 4, 8 or 24 h post-IPTG induction. TNFα variants were purified to >90% homogeneity by affinity chromatography using a TNFα specific monoclonal antibody as described in Nielsen et al., (2004), J Biol. Chem. 279:33593-33600. The purified TNFα variants were characterized by MALDI-TOF mass spectrometry to verify their identity and integrity.
In Situ Protease Assay: Analysis of the Protease Resistance of TNF-α Variants Using Western Blot
Aliquots (1 ml) of E. coli cell cultures, expressing the various TNF-α variants to be tested, were centrifuged (5000 g/5 min/5° C.) and the culture medium was discarded. Cell pellets were resuspended in 1 ml of 20 mM Bis-Tris, pH 6.0. Cell disruption was achieved by sonication (4×15 sec at an amplitude of 11 μm with 20 sec pauses between each sonication round). The resulting suspensions were centrifuged (20000 g/30 min/8° C.) and the supernatants (crude extracts) were transferred to fresh tubes. Crude extracts were then analysed for protein content using a Bradford protein assay (Biorad). Equivalent amounts of proteins were loaded onto 4-12% NuPAGE gels (Novex). After SDS-PAGE, proteins were transferred onto nitrocellulose membrane by semi-dry blotting. For immunoreaction, incubation with rabbit TNFα antiserum (1 h; dilution 1:10 000) and with horse radish peroxidase-conjugated secondary antibody (Dako P448) were carried out in Tris 50 mM, NaCl 150 mM, EDTA 5 mM, Igepal 0.1%, gelatine 0.5%. Detection was with ECL™ reagents (GE Healthcare).

purified HLA DRB1 *0802 = purified HLA DRB1 *0802 (Homo sapiens, UniProt P01903+P01911, A100R/A103L/A169T/F76Y/H45Y/I96F/K41T/L162R/M171V/P40S/Q125H/Q178H/Q39Y/Q99D/R218S/R42G/S66Y/V115G/W38E); assay: IC50nM to purified HLA | DRB1 *0802
Description: as §1
Head of the field: IC50nM to purified HLA | DRB1 *0802
as §2
Where the first naming reader finds the target: head: IC50nM to purified HLA | DRB1 *0802

purified HLA DRB1 *0405 = purified HLA DRB1 *0405 (Homo sapiens, UniProt P01903+P01911, A100R/A169T/D86S/F76Y/I96L/K127E/L162R/M171V/N62H/P40V/Q125Y/R42H/S133A/S149N/S66Y/V115G/V209L/W38E); assay: IC50nM to purified HLA | DRB1 *0405
Description: as §1
Head of the field: IC50nM to purified HLA | DRB1 *0405
as §2
Where the first naming reader finds the target: head: IC50nM to purified HLA | DRB1 *0405

purified HLA DRB1 *0301, sequence (P01903 26-254 limits assumed, other chains not shown): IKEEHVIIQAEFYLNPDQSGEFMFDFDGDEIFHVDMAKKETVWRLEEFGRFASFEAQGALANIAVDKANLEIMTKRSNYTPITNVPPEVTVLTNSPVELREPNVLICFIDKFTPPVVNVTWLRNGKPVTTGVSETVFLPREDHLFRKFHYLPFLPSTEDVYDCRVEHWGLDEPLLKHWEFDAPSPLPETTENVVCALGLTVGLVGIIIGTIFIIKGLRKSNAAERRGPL
purified HLA DRB4 *0101, sequence (P01903 26-254 limits assumed): as the sequence (P01903 26-254 limits assumed, other chains not shown) above
purified HLA DRB4 *0101, sequence (P13762 whole entry G164S): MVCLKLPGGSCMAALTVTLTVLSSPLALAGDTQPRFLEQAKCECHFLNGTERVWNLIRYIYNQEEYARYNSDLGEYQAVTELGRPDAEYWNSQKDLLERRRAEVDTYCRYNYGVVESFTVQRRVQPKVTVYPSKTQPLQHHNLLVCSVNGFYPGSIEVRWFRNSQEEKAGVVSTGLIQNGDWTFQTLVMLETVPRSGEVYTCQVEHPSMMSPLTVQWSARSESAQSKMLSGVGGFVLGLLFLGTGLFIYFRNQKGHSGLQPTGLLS

## AAAYFVAAFTLHAAA [SEQ ID NO: 23]
Purified HLA DRB4 *0101
  IC50: 81 nM
Purified HLA DRB1 *0401
  IC50: 1 nM
Purified HLA DRB1 *0301
  IC50: 126 nM
Purified HLA DRB1 *0101
  IC50: 3.4 nM
Purified HLA DRB1 *0701
  IC50: 78 nM
Purified HLA DRB1 *0404
  IC50: 0.67 nM
[1]; sequence inserted into loop EF of human TNFα, procedure of Example 2
  protease resistance of PADRE analogue sequence: increased resistance towards proteolytic degradation
Purified HLA DRB1 *0802
  IC50: 5.9 nM
Purified HLA DRB1 *0405
  IC50: 4.4 nM

B1: SEQ ID NO: 78: TNFα (Y87S) variant with the 12 C-terminal residues of SEQ ID NO: 23 inserted (protein)
chain: MVRSSSRTPSDKPVAHVVANPQAEGQLQWLNRRANALLANGVELRDNQLVVPSEGLYLIYSQVLFKGQGCPSTHVLLTHTISRIAVSSQTKVNLLSAIKSPCQRETPEGAYFVAAFTLHAAAEAKPWYEPIYLGGVFQLEKGDRLSAEINRPDYLDFAESGQVYFGIIAL
modifications: Synthetic TNF variant incorporating pan-DR binding peptide
[1]
  protease resistance of TNF variants (proteolytic cleavage inside the PADRE analogue sequence): protease resistant

B2: SEQ ID NO: 79: TNFα (Y87S) variant with the 12 C-terminal residues of SEQ ID NO: 29 inserted (protein)
chain: B1 chain with Y111H, F116N
modifications: Synthetic TNF variant incorporating pan-DR binding peptide
[1]
  protease resistance of TNF variants (proteolytic cleavage inside the PADRE analogue sequence): protease resistant

B3: SEQ ID NO: 84: TNFα (Y87S) variant with the 12 C-terminal residues of SEQ ID NO: 69 inserted (protein)
chain: B1 chain with Y111I, F116W
modifications: Synthetic TNF variant incorporating pan-DR binding peptide
[1]
  protease resistance of TNF variants (proteolytic cleavage inside the PADRE analogue sequence): protease resistant

— patent publication US9789181B2, “PAN-DR binding polypeptides and uses thereof” (Epimmune Inc., priority 2009, dated 2017)
